Values quoted from earlier work as cited in article PMC12266345, “Discovery and characterization of selective lipase-inhibiting polyheterocyclic derivatives: a combined in silico and in vitro study” (Turkish Journal of Biology, 2025).
≈ marks a conversion by molar mass, not a printed value. Where two headings read alike, the source gives them in different places.

Target: lipase
[1] = ref Ruiz et al., 2006, Benarous et al., 2015

For `O=C(N[C@H](CO)[C@H](O)c1ccc([N+](=O)[O-])cc1)C(Cl)Cl` [Chloramphenicol], the IC50 lipase inhibition (ref Liu et al., 2006) is listed as 220 ± 0.003 µg/mL (≈ 681 µM).

For `O.Oc1cc(O)c2c(c1)O[C@H](c1ccc(O)c(O)c1)[C@@H](O)C2` [catechin], the IC50 lipase inhibition [1] is listed as 183 µg/mL.

In the case of `Cc1nc(-c2ccc(OCC(C)C)c(C#N)c2)sc1C(=O)O` [febuxostat], the IC50 lipase inhibition (ref Serseg and Benarous, 2018) is listed as 660 µg/mL (≈ 2090 µM).

For `Nc1nc(=O)c2nc(CNc3ccc(C(=O)N[C@@H](CCC(=O)O)C(=O)O)cc3)cnc2[nH]1` [folic acid], the IC50 lipase inhibition (ref Serseg and Benarous, 2018) is given as 640 µg/mL (≈ 1450 µM).

For `COc1ccc2c3c([nH]c2c1)C(C)=NCC3` [harmaline], the IC50 lipase inhibition [1] is listed as 830 µg/mL (≈ 3870 µM).

For `O=c1cc(O)cc(/C=C/c2ccc(O)c(O)c2)o1` [hispidin], the IC50 lipase inhibition [1] is listed as 179 µg/mL (≈ 727 µM).

In the case of `CCOC(=O)N1CCC(=C2c3ccc(Cl)cc3CCc3cccnc32)CC1` [loratadine], the IC50 lipase inhibition (ref Benarous et al., 2018) is listed as 440 ± 0.02 µg/mL (≈ 1150 µM).

In the case of `CN(C)[C@@H]1C(O)=C(C(N)=O)C(=O)[C@@]2(O)C(O)=C3C(=O)c4c(O)cccc4[C@@](C)(O)[C@H]3C[C@@H]12` [tetracycline], the IC50 lipase inhibition (ref Liu et al., 2006) is given as 470 ± 0.005 µg/mL (≈ 1060 µM).
